“And” between values parts separate entries of the source, which are not always exact repeats. Equal values may be shown once.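 Grown in 96-well plates, cells were treated for 48 hours with each compound at five concentrations. Insufficient inhibition: endpoint recorded as highest concentration tested. The concentration for 50% growth inhibition is given as GI50. TGI denotes the concentration required for complete inhibition of growth.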
Assays:
Test in all cases: NCI-60 cell line screen, 48 h
786-0 renal = system: 786-0 renal
A498 renal = system: A498 renal
ACHN renal = system: ACHN renal
BT-549 breast = system: BT-549 breast
CAKI-1 renal = system: CAKI-1 renal
CCRF-CEM leukemia = system: CCRF-CEM leukemia
COLO 205 colon = system: COLO 205 colon
DU-145 prostate = system: DU-145 prostate
HCC-2998 colon = system: HCC-2998 colon
HCT-116 colon = system: HCT-116 colon
HCT-15 colon = system: HCT-15 colon
HL-60(TB) leukemia = system: HL-60(TB) leukemia
HT29 colon = system: HT29 colon
IGROV1 ovarian = system: IGROV1 ovarian
KM12 colon = system: KM12 colon
M14 melanoma = system: M14 melanoma
MALME-3M melanoma = system: MALME-3M melanoma
MDA-MB-231 breast = system: MDA-MB-231 breast
MDA-MB-435 = system: MDA-MB-435
NCI-H226 lung = system: NCI-H226 lung
NCI-H23 lung = system: NCI-H23 lung
NCI-H460 lung = system: NCI-H460 lung
NCI-H522 lung = system: NCI-H522 lung
NCI/ADR-RES ovarian = system: NCI/ADR-RES ovarian
OVCAR-3 ovarian = system: OVCAR-3 ovarian
OVCAR-4 ovarian = system: OVCAR-4 ovarian
OVCAR-5 ovarian = system: OVCAR-5 ovarian
OVCAR-8 ovarian = system: OVCAR-8 ovarian
RPMI-8226 leukemia = system: RPMI-8226 leukemia
RXF 393 renal = system: RXF 393 renal
SF-268 CNS = system: SF-268 CNS
SF-295 CNS = system: SF-295 CNS
SF-539 CNS = system: SF-539 CNS
SK-MEL-2 melanoma = system: SK-MEL-2 melanoma
SK-MEL-28 melanoma = system: SK-MEL-28 melanoma
SK-MEL-5 melanoma = system: SK-MEL-5 melanoma
SK-OV-3 ovarian = system: SK-OV-3 ovarian
SN12C renal = system: SN12C renal
SNB-75 CNS = system: SNB-75 CNS
SW-620 colon = system: SW-620 colon
UACC-257 melanoma = system: UACC-257 melanoma
UACC-62 melanoma = system: UACC-62 melanoma
UO-31 renal = system: UO-31 renal
HOP-92 NSCLC = system: HOP-92 NSCLC
A549 NSCLC = system: A549 NSCLC
EKVX NSCLC = system: EKVX NSCLC
PC-3 prostate = system: PC-3 prostate
SNB-19 CNS = system: SNB-19 CNS
TK-10 renal = system: TK-10 renal
U251 CNS = system: U251 CNS

`O=c1c2cc(F)ccc2sc2c(Nc3ccncc3)nc3ccccc3c12` was tested, and the GI50 (786-0 renal) was 1760 nM, the TGI (786-0 renal) was 3390 nM and the GI50 (A498 renal) was 1040 nM. The TGI (A498 renal) was 2640 nM, the GI50 (ACHN renal) was 1550 nM and the TGI (ACHN renal) was 3130 nM. For the same compound, the GI50 (BT-549 breast) was 3310 nM, the TGI (BT-549 breast) was 16700 nM and the GI50 (CAKI-1 renal) was 1530 nM. It also gave a TGI (CAKI-1 renal) of 3840 nM, a GI50 (CCRF-CEM leukemia) of 860 nM and a TGI (CCRF-CEM leukemia) of 2920 nM. It also gave a GI50 (COLO 205 colon) of 1700 nM, a TGI (COLO 205 colon) of 3940 nM and a GI50 (DU-145 prostate) of 2490 nM. The TGI (DU-145 prostate) was 6270 nM, the GI50 (HCC-2998 colon) was 2670 nM and the TGI (HCC-2998 colon) was 7970 nM. For the same compound, the GI50 (HCT-116 colon) was 1450 nM, the TGI (HCT-116 colon) was 3130 nM and the GI50 (HCT-15 colon) was 1650 nM. The TGI (HCT-15 colon) was 3320 nM, the GI50 (HL-60(TB) leukemia) was 13700 nM and the TGI (HL-60(TB) leukemia) was 39800 nM. It also gave a GI50 (HT29 colon) of 1880 nM, a TGI (HT29 colon) of 3730 nM and a GI50 (IGROV1 ovarian) of 1550 nM. For the same compound, the TGI (IGROV1 ovarian) was 5550 nM, the GI50 (KM12 colon) was 1870 nM and the TGI (KM12 colon) was 3930 nM. For the same compound, the GI50 (M14 melanoma) was 1570 nM, the TGI (M14 melanoma) was 3010 nM and the GI50 (MALME-3M melanoma) was 1740 nM. It also gave a TGI (MALME-3M melanoma) of 3420 nM, a GI50 (MDA-MB-231 breast) of 1300 nM and a TGI (MDA-MB-231 breast) of 2670 nM. The GI50 (MDA-MB-435) was 1900 nM, the TGI (MDA-MB-435) was 3670 nM and the GI50 (NCI-H226 lung) was 14500 nM. The TGI (NCI-H226 lung) was 47800 nM, the GI50 (NCI-H23 lung) was 1710 nM and the TGI (NCI-H23 lung) was 3800 nM. For the same compound, the GI50 (NCI-H460 lung) was 1770 nM, the TGI (NCI-H460 lung) was 3620 nM and the GI50 (NCI-H522 lung) was 1910 nM. For the same compound, the TGI (NCI-H522 lung) was 4820 nM, the GI50 (NCI/ADR-RES ovarian) was 1940 nM and the TGI (NCI/ADR-RES ovarian) was 4470 nM. It also gave a GI50 (OVCAR-3 ovarian) of 1840 nM, a TGI (OVCAR-3 ovarian) of 3880 nM and a GI50 (OVCAR-4 ovarian) of 1700 nM. The TGI (OVCAR-4 ovarian) was 3530 nM, the GI50 (OVCAR-5 ovarian) was 1660 nM and the TGI (OVCAR-5 ovarian) was 3110 nM. The GI50 (OVCAR-8 ovarian) was 1780 nM, the TGI (OVCAR-8 ovarian) was 4250 nM and the GI50 (RPMI-8226 leukemia) was 1750 nM. The TGI (RPMI-8226 leukemia) was 4430 nM, the GI50 (RXF 393 renal) was 1700 nM and the TGI (RXF 393 renal) was 3410 nM. It also gave a GI50 (SF-268 CNS) of 1910 nM, a TGI (SF-268 CNS) of 4560 nM and a GI50 (SF-295 CNS) of 4120 nM. The TGI (SF-295 CNS) was 26700 nM, the GI50 (SF-539 CNS) was 1720 nM and the TGI (SF-539 CNS) was 3290 nM. It also gave a GI50 (SK-MEL-2 melanoma) of 11200 nM, a TGI (SK-MEL-2 melanoma) of 26500 nM and a GI50 (SK-MEL-28 melanoma) of 1990 nM. For the same compound, the TGI (SK-MEL-28 melanoma) was 3840 nM, the GI50 (SK-MEL-5 melanoma) was 7290 nM and the TGI (SK-MEL-5 melanoma) was 28200 nM. The GI50 (SK-OV-3 ovarian) was 14200 nM, the TGI (SK-OV-3 ovarian) was 34400 nM and the GI50 (SN12C renal) was 2160 nM. The TGI (SN12C renal) was 5930 nM, the GI50 (SNB-75 CNS) was 1100 nM and the TGI (SNB-75 CNS) was 3640 nM. It also gave a GI50 (SW-620 colon) of 1500 nM, a TGI (SW-620 colon) of 3160 nM and a GI50 (UACC-257 melanoma) of 2340 nM. It also gave a TGI (UACC-257 melanoma) of 6170 nM, a GI50 (UACC-62 melanoma) of 1790 nM and a TGI (UACC-62 melanoma) of 3740 nM. For the same compound, the GI50 (UO-31 renal) was 1110 nM and the TGI (UO-31 renal) was 2500 nM.
`COc1ccc(CC2C(=O)NC(C)C(=O)N(C)C3C(=O)N(C)C(Cc4ccc(O)c(c4)Oc4ccc(cc4)C3O)C(=O)NC(C)C(=O)NC(C)C(=O)N2C)cc1` (centres undefined) (tested in a mixture with another compound) gave a TGI (BT-549 breast) of 9.92 nM, a TGI (HOP-92 NSCLC) of 37.2 nM and a TGI (NCI-H226 lung) of 117 nM. For the same compound, the TGI (NCI-H23 lung) was 51 nM and the TGI (UACC-257 melanoma) was 101 nM and 27.8 nM.
For `CCC1(c2ccc(N3C(=O)c4ccccc4C3=O)cc2)CCC(=O)NC1=O` (centres undefined), the TGI (A549 NSCLC) was greater than 10000 nM, the TGI (ACHN renal) was greater than 10000 nM and the TGI (CAKI-1 renal) was greater than 10000 nM. It also gave a TGI (COLO 205 colon) greater than 10000 nM, a TGI (DU-145 prostate) greater than 10000 nM and a TGI (EKVX NSCLC) greater than 10000 nM. The TGI (HCT-116 colon) was greater than 10000 nM, the TGI (HCT-15 colon) was greater than 10000 nM and the TGI (HOP-92 NSCLC) was greater than 10000 nM. The TGI (HT29 colon) was greater than 10000 nM, the TGI (IGROV1 ovarian) was greater than 10000 nM and the TGI (KM12 colon) was greater than 10000 nM. It also gave a TGI (M14 melanoma) greater than 10000 nM, a TGI (MDA-MB-231 breast) greater than 10000 nM and a TGI (MDA-MB-435) greater than 10000 nM. The TGI (NCI-H226 lung) was greater than 10000 nM, the TGI (NCI-H23 lung) was greater than 10000 nM and the TGI (NCI/ADR-RES ovarian) was greater than 10000 nM. The TGI (OVCAR-3 ovarian) was greater than 10000 nM, the TGI (OVCAR-4 ovarian) was greater than 10000 nM and the TGI (OVCAR-5 ovarian) was greater than 10000 nM. The TGI (OVCAR-8 ovarian) was greater than 10000 nM, the TGI (PC-3 prostate) was greater than 10000 nM and the TGI (RXF 393 renal) was greater than 10000 nM. The TGI (SF-268 CNS) was greater than 10000 nM, the TGI (SF-295 CNS) was greater than 10000 nM and the TGI (SF-539 CNS) was greater than 10000 nM. It also gave a TGI (SK-MEL-28 melanoma) greater than 10000 nM, a TGI (SK-MEL-5 melanoma) greater than 10000 nM and a TGI (SN12C renal) greater than 10000 nM. It also gave a TGI (SNB-19 CNS) greater than 10000 nM, a TGI (SNB-75 CNS) greater than 10000 nM and a TGI (SW-620 colon) greater than 10000 nM. For the same compound, the TGI (TK-10 renal) was greater than 10000 nM, the TGI (U251 CNS) was greater than 10000 nM and the TGI (UO-31 renal) was greater than 10000 nM.
With `C=C(CNCCc1ccc(O)cc1)[C@@H]1CC[C@]2(CO)CC[C@]3(C)[C@H](CC[C@@H]4[C@@]5(C)CCC(NCCc6ccc(O)cc6)C(C)(C)[C@@H]5CC[C@]43C)[C@@H]12` (some centres undefined) the GI50 (A498 renal) was 1400 nM, the TGI (A498 renal) was 2860 nM and the GI50 (BT-549 breast) was 1590 nM. It also gave a TGI (BT-549 breast) of 3060 nM, a GI50 (CAKI-1 renal) of 1490 nM and a TGI (CAKI-1 renal) of 2850 nM. For the same compound, the GI50 (DU-145 prostate) was 1540 nM, the TGI (DU-145 prostate) was 3000 nM and the GI50 (HOP-92 NSCLC) was 667 nM. It also gave a TGI (HOP-92 NSCLC) of 2180 nM, a GI50 (MDA-MB-435) of 873 nM and a TGI (MDA-MB-435) of 2240 nM. The GI50 (NCI-H460 lung) was 191 nM, the TGI (NCI-H460 lung) was 362 nM and the GI50 (OVCAR-4 ovarian) was 1350 nM. For the same compound, the TGI (OVCAR-4 ovarian) was 2700 nM, the GI50 (OVCAR-8 ovarian) was 1610 nM and the TGI (OVCAR-8 ovarian) was 4270 nM. For the same compound, the GI50 (PC-3 prostate) was 884 nM, the TGI (PC-3 prostate) was 2350 nM and the GI50 (SF-539 CNS) was 1310 nM. It also gave a TGI (SF-539 CNS) of 2600 nM, a GI50 (SK-OV-3 ovarian) of 1770 nM and a TGI (SK-OV-3 ovarian) of 3260 nM. It also gave a GI50 (SNB-75 CNS) of 1250 nM, a TGI (SNB-75 CNS) of 2540 nM and a GI50 (SW-620 colon) of 178 nM. It also gave a TGI (SW-620 colon) of 352 nM, a GI50 (UACC-62 melanoma) of 1720 nM and a TGI (UACC-62 melanoma) of 3260 nM. The GI50 (UO-31 renal) was 1160 nM and the TGI (UO-31 renal) was 2440 nM.

— PubChem BioAssay (NCI)
